Series [1] concerns the target T1, S. aureus staphopain A (ScpA) (Staphylococcus aureus, UniProt P81297).
T1 construct: purchased Preparatis (Krakow, Poland)
T1 sequence (P81297 215-388): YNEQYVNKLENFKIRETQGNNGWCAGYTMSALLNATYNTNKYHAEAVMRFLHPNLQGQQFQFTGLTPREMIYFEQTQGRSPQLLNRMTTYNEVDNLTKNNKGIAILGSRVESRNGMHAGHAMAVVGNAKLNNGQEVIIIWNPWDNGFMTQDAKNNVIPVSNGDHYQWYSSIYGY
It is filed as in vitro ADME. Conditions: gel-electrophoresis (10-20% Tricine gel); MS detected cleavage of minor fragments. The procedure:
(§1) Proteolytic degradation of LL-37 and SDS-PAGE analysis (See Supplementary Methods S1).
Matrix-assisted laser desorption ionization mass spectrometry (MALDI-MS) was used for the identification of […] generated peptides of LL-37. A MALDI matrix solution consisting of 5 mg/ml hydroxycinnamic acid in 50% acetonitrile, 0.1% (v/v) phosphoric acid[67] was mixed with the staphopain-generated peptides. The matrix solution contained two peptide standards [des-arg-bradykinin (m/z 904.468) and ACTH 18–39 (m/z 2465.199)] that were used for internal mass calibration in every analyte/matrix position. MALDI-MS and MS/MS analyses of the samples were performed on a 4700 Proteomics Analyzer MALDI-TOF/TOF™ mass spectrometer (Applied Biosystems, Framingham, MA). Database searching was carried out using Mascot (Matrix Science) with Swissprot as the database and with a peptide mass tolerance of 50 ppm and a fragment mass tolerance of 0.2 Da. […]
labeled LL-37) and green (S. aureus cells) seen separately, and yellow representing co-existence of bacterial cells and the TAMRA-labeled LL-37 peptide. Binding of TAMRA labeled LL-37 to the S. aureus cells were present throughout the biofilm. […]
Supplementary Fig. S5. […] LL-37 was incubated with and without S. aureus ScpA and analyzed using SDS-PAGE (Novex®10-20% Tricine Gel) (a), and by mass spectrometry (b). […]

The target of series [2] is T2, S. aureus staphopain B (SspB) (Staphylococcus aureus, UniProt P0C1S6).
T2 construct: purchased Sigma-Aldrich
T2 sequence (P0C1S6 220-393): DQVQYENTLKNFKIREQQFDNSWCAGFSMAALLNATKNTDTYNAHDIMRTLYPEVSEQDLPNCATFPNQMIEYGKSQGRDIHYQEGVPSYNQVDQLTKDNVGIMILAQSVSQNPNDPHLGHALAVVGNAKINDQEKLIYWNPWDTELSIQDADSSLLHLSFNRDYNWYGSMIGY
Briefly: Proteolytic degradation of LL-37 by staphopain B, SDS-PAGE and MS. It is filed as in vitro ADME. The settings on record: LL-37 3 μg with staphopain B 0.6 μg in 30 μl, 3 h, 37 °C; SDS-PAGE (10-20% Tricine gel), MALDI-MS. How it is done:
as §1
Matrix-assisted laser desorption ionization mass spectrometry (MALDI-MS) was used for the identification of trypsin generated peptides of LL-37. A MALDI matrix solution consisting of 5 mg/ml hydroxycinnamic acid in 50% acetonitrile, 0.1% (v/v) phosphoric acid[67] was mixed with the staphopain-generated peptides. The matrix solution contained two peptide standards [des-arg-bradykinin (m/z 904.468) and ACTH 18–39 (m/z 2465.199)] that were used for internal mass calibration in every analyte/matrix position. […]
LL-37 (3 µg), was incubated with S. aureus staphopain B (0.6 µg) (Sigma-Aldrich, St. Louis, MO, USA) in a total volume of 30 µl for 3 h at 37 ° C. […] The materials were subsequently analysed on Novex®10-20% Tricine Gel (Life technologies, Carlsbad, CA, USA) under reducing conditions. […]
The NF-κB/AP-1 reporter cell line THP1-XBlue™ -CD14, derived from the human monocytic THP-1 cell line, (InvivoGen, San Diego, CA, USA) was cultured according to the manufacturer’s protocol. […] NF-κB/AP-1 activation was assessed by using QUANTI-Blue™ assay according to the instructions supplied by the manufacturer. Secreted embryonic alkaline phosphatase (SEAP) was produced by the cell line upon stimulation and assessed by a SEAP detection reagent in cell supernatants. Absorbance at 600 nm was then detected. […]

In series [3] the test system is planktonic S. aureus (isolates from skin of patients with AD and ATCC 29213). The series is classed as cell-based, Staphylococcus aureus. Conditions: summary over the tested S. aureus strains. How it is done:
Measurement of the bacterial susceptibility was determined by using a modified version of the CBD method (MBEC^TM Biofilm Inoculator, Innovotech, Edmonton, Canada)[59] following the manufacturers protocol. Briefly, to establish biofilms in vitro using the CBD, 150 μl bacterial solution of 10^5 CFU/ml in 1.5% tryptic soy broth (TSB) was supplemented with 0.3% glucose and aliquoted into each well of the MBEC plate and thereafter incubated for 24 h in a rotary incubator at 37 °C and 180 rpm. This allowed the biofilm to form on the pegs. The pegs with established biofilms were then washed once in sterile PBS (200 μl/well). […]
The MIC values measured using the CBD are equivalent to MIC values obtained using the National Committee for Clinical Laboratory Standards (NCCLS) procedure. The MIC value, representing the concentration required to inhibit growth of planktonic bacteria, was determined from bacteria that were shed from the pegs when the lid of the CBD was placed in different concentrations of LL-37. […] MBECs were determined by analyzing the bacterial viability in the biofilm after 24 h of incubation at 37 °C either by reading the turbidity at 600 nm in a 96-well plate reader (Victor[3] 1420 multilabel counter, Perkin-Elmer) or by obtaining bacterial plate counts. The recorded MIC and MBEC values represent a typical result of three independent experiments.

The conditions of series [4]: published peptide, cited from earlier work. An excerpt: Table 2 A selection of published peptide sequences derived from LL-37 with immune-modulating actions, and examples of their biological effects. | column: Biological activity
A further series concerns staphopain B (SspB). Briefly: S. aureus staphopain B (0.6 µg) (Sigma-Aldrich) in a total volume of 30 µl. The settings on record: 37 °C, up to 3 h.

Entries after “also recorded” stand apart in the source; their conditions may differ. Read-outs that look alike come from different tables or passages of the source.

With `CC[C@H](C)[C@H](NC(=O)[C@H](CCCCN)NC(=O)[C@H](CCC(=O)O)NC(=O)[C@H](CCCCN)NC(=O)[C@H](CO)NC(=O)[C@H](CCCCN)NC(=O)[C@H](CCCNC(=N)N)NC(=O)[C@H](Cc1ccccc1)NC(=O)[C@H](Cc1ccccc1)NC(=O)[C@H](CC(=O)O)NC(=O)CNC(=O)[C@H](CC(C)C)NC(=O)[C@@H](N)CC(C)C)C(=O)NCC(=O)N[C@@H](CCCCN)C(=O)N[C@@H](CCC(=O)O)C(=O)N[C@@H](Cc1ccccc1)C(=O)N[C@@H](CCCCN)C(=O)N[C@@H](CCCNC(=N)N)C(=O)N[C@H](C(=O)N[C@H](C(=O)N[C@@H](CCC(N)=O)C(=O)N[C@@H](CCCNC(=N)N)C(=O)N[C@H](C(=O)N[C@@H](CCCCN)C(=O)N[C@@H](CC(=O)O)C(=O)N[C@@H](Cc1ccccc1)C(=O)N[C@@H](CC(C)C)C(=O)N[C@@H](CCCNC(=N)N)C(=O)N[C@@H](CC(N)=O)C(=O)N[C@@H](CC(C)C)C(=O)N[C@H](C(=O)N1CCC[C@H]1C(=O)N[C@@H](CCCNC(=N)N)C(=O)N[C@H](C(=O)N[C@@H](CCC(=O)O)C(=O)N[C@@H](CO)C(=O)O)[C@@H](C)O)C(C)C)[C@@H](C)CC)C(C)C)[C@@H](C)CC` [LL-37], the “degradation by ScpA” value in series [1] is given as “did not reveal any obvious major cleavage”. Besides, the “degradation by SspB” value in series [2] is “degraded into fragments of lower molecular weight”. The “MIC values obtained for planktonic cells” value in series [3] is 10 to 20 µM. Take “GDFFRKSK EKIGKEFKRI VQRIKDFLRN LVPRTES [F106, published fragment (F) derived from LL-37]”: the Biological activity entry in series [4] (ref [29]) is “AM, IM^2”. As to “GKEFKRI VQRIKDFLRN LVPR (GKEFKRIVQRIKDFLRNLVPR)”, in series [4] (ref [24]), the Biological activity result is reported as “AM, IM^1c,2”. On to IGKEFKRI VQRIKDFLRN L [IG-19], for which, in series [4] (ref [27], [28]), the Biological activity entry was “IM^1b,2,5”. As to IGKEFKRI VQRIKDFLRN LVPRTES [IG-25], in series [4] (ref [27]), the Biological activity result is listed as “IM^1b,3”. As to “KSK EKIGKEFKRI VQRIKDFLRN LVPRTES [KS-30]”, the Biological activity entry in series [4] (ref [23], [25], [26]) is recorded as “AM, IM^3,4”.

Regarding LLGDFFRKSKEKIGKEFKRIV, in series [4] (ref [24]), the Biological activity entry is “AM, IM^2”. Take LLGDFFRKSKEKIGKEFKRIVQRIK [LL-25]: in series [4] (ref [27]), the Biological activity result is given as “IM^1b”. For the molecule “LLGDFFRKSKEKIGKEFKRIVQRIKDFLRNL [LL-31]”, in series [4] (ref [27]), the Biological activity result is recorded as “IM^1b,3”.

For the molecule LLGDFFRKSKEKIGKEFKRIVQRIKDFLRNLVPRTES, the cleaved bond result in the series on staphopain B (SspB) (S. aureus) is on record as “E11-K12; also recorded: E16-F17; also recorded: D26-F27; also recorded: L28-R29”. Further, the fragment found result in the series on staphopain B (SspB) (Staphylococcus aureus) is on record as “LLG16, minor”.

For RKSK EKIGKEFKRI VQRIKDFLRN L [RK-25], the Biological activity result in series [4] (ref [27]) is “IM^1b,3”. As to “RKSK EKIGKEFKRI VQRIKDFLRN LVPRTES [F110, published fragment (F) derived from LL-37]”, the Biological activity result in series [4] (ref [29]) is listed as “AM, IM^1c,2”. For “RKSK EKIGKEFKRI VQRIKDFLRN LVPRTES [RK-31]”, in series [4] (ref [23], [25]), the Biological activity entry is “AM, IM^3”.

Source of the values: PMC5562790 (Scientific Reports, 2017).
